Residues, ends and D or L forms follow the SMILES beside them.
Columns and labels:
[1] = system: set of Gram-negative and Gram-positive bacteria, including drug-resistant clinical isolates; assay type: cell-based; conditions: 12 strains; median MICs used; MIC > 16 µM taken as 32 µM
Description: To obtain a global assessment of the effect on antimicrobial activity, the geometric mean of the MIC (G-MIC) was calculated, and from this, the overall improvement or impoverishment with respect to arenicin-1. In general, inverting the symmetry or decreasing the charge had detrimental effects.
The overall activity against a set of tested bacterial strains was determined by way of the commonly used geometric mean of measured MIC values. […] At the same time, the geometric mean can still discriminate antimicrobial agents showing minor variations in activity; in other words, it has a better “resolution” than the median MIC (MIC50). Some mathematical basics for choosing the geometric mean for antimicrobial activity comparison are further discussed in the Supplementary Chapter S3.

[2] = system: P. aeruginosa c.i.; assay type: cell-based, Pseudomonas aeruginosa; conditions: 18 h
From the text: (§1) E. coli ML35p, Listeria monocytogenes EGD, methicillin-resistant Staphylococcus aureus (MRSA) ATCC 33591 were kindly provided by Prof. Robert Lehrer (University of California, Los Angeles, CA, USA); E. coli ATCC 25922, E. coli M15, Pseudomonas aeruginosa ATCC 27853, S. aureus ATCC 25923 were provided by Dr. Elena Ermolenko (Institute of Experimental Medicine, St-Petersburg, Russia); drug-resistant clinical isolates were provided by Prof. Gennadiy Afinogenov (Saint Petersburg State University, Russia); S. aureus 710A has been described previously. The following clinical isolates of bacteria were used: P.s aeruginosa resistant to aztreonam, ceftazidime, cefotaxime (obtained from the urine of a patient with cystitis), Acinetobacter baumannii resistant to meropenem (from an infected wound); Staphylococcus intermedius (from an infected wound caused by a dog bite) resistant to ciprofloxacin, cefuroxime, clindamycin, erythromycin, rifampin, gentamicin, benzylpenicillin, oxacillin.
(§2) This assay was applied to determine the MIC, according to the guidelines of the Clinical and Laboratory Standards Institute, using Mueller Hinton (MH) Broth. We prepared 2x stocks of peptides and serially diluted them in sterile PBS instead of Mueller Hinton Broth, so that the treatment of the bacteria with the peptides was carried out in a medium containing 50% of MH and 50% of PBS, as described. The overnight cultures of each strain were transferred to fresh MH media and further incubated to obtain a mid-logarithmic-growth-phase culture of bacteria. The absorbance of each bacterial suspension was measured at 620 nm, and bacteria were then diluted to approximately 2 × 10^5 CFU/mL. Then, 50 µL of the suspensions were mixed with 50 µL of the peptide dilutions in the wells of a microtiter plate (pre-treated for 1 h at 37 °C with 0.2% bovine serum albumin (BSA) in water, sterilized by filtration, to diminish the non-specific binding of the peptides to the plastic surfaces).

[3] = system: Staphylococcus intermidius; assay type: cell-based, Staphylococcus intermedius; conditions: 18 h
From the text: as §1, §2

[4] = system: MRSA ATCC 33591; assay type: cell-based, Staphylococcus aureus; conditions: ATCC 33591, 18 h
From the text: as §1, §2

[5] = system: S. aureus ATCC 25923; assay type: cell-based, Staphylococcus aureus; conditions: ATCC 25923, 18 h
From the text: as §1, §2

[6] = system: S. aureus c.i.; assay type: cell-based, Staphylococcus aureus; conditions: 18 h
From the text: as §1, §2

[7] = system: E. coli ML35p outer membrane; assay: Outer membrane permeabilization assay (nitrocefin hydrolysis); assay type: cell-based, Escherichia coli; conditions: peptide at 2 × MIC, 10 mM sodium phosphate buffer, 100 mM NaCl, pH 7.4, 37 °C, 486 nm
Description: Figure 5 Permeabilizing effect of arenicin-1 variants on E. coli ML35p outer and cytoplasmic membranes.
The E. coli ML35p outer membrane permeability was assessed by monitoring hydrolysis of the chromogenic β-lactamase substrate nitrocefin (3-(2,4-dinitrostyryl)-(6R,7R)-7-(2-thienyl acetamido)ceph-3-em-4-carboxylic acid) (Calbiochem-Novabiochem, San-Diego, CA, USA) by detection of the hydrolysis product at 486 nm. Inner membrane permeability was monitored by measuring the hydrolysis of o-nitrophenyl-β-D-galactoside (ONPG, Sigma, La Jolla, CA, USA) at 420 nm. The E. coli ML35p strain expresses a plasmid-encoded periplasmic β-lactamase; it constitutively expresses cytoplasmic β-galactosidase and lacks lactose permease. E. coli ML35p was maintained on trypticase soy agar plates containing […] of ampicillin per mL. The bacteria used for antimicrobial testing or membrane permeability assays were picked from a single colony, incubated in 50 mL of sterile Trypticase soy broth for 16 h at 37 °C, washed three times with 10 mM sodium phosphate buffer (pH 7.4), adjusted to an optical density at 620 nm of 1 (2.5 × 10^8 CFU/mL), and kept on ice until use. The assays were performed in 96-well microtiter plates that were monitored every minute with a SpectraMax 250 Microplate Spectrophotometer (Molecular Devices, Sunnyvale, CA, USA) using the SOFTmax PRO software supplied by the manufacturer. […]

[8] = system: E. coli ATCC 25922; assay type: cell-based, Escherichia coli; conditions: ATCC 25922, 18 h
From the text: as §1, §2

[9] = system: E. coli M15; assay type: cell-based, Escherichia coli; conditions: M15, 18 h
From the text: as §1, §2

[10] = system: Listeria monocytogenes EGD; assay type: cell-based; conditions: 18 h
From the text: as §1, §2

[11] = system: Escherichia coli ML35p; assay type: cell-based; conditions: broth microdilution, 50% Mueller Hinton broth / 50% PBS, 18 h at 37 °C, median of 3–5 experiments in triplicates
From the text: as §1, §2

[12] = system: Pseudomonas aeruginosa ATCC 27853; assay type: cell-based; conditions: ATCC 27853, 18 h
From the text: as §1, §2

[13] = system: Staphylococcus aureus 710A; assay type: cell-based; conditions: 18 h
From the text: as §1, §2

[14] = system: Acinetobacter baumanii c.i.; assay type: cell-based, Acinetobacter baumannii; conditions: 18 h
From the text: as §1, §2

[15] = system: human erythroleukemia K-562 cells; assay type: cell-based; conditions: 24 h
Description: The standard MTT ((3-(4,5-Dimethylthiazol-2-yl)-2,5-diphenyltetrazolium bromide) test was used for the examination of the cytotoxic activity of AMPs towards human erithroleukemia cells K-562. The cells were purchased from Biolot (Saint Petersburg, Russia) and were grown in RPMI 1640 medium (Biolot, Saint Petersburg, Russia) supplemented with glutamine and 10% FCS. Before the experiment, the culturing medium was replaced with serum-free RPMI 1640. Serial dilutions of the peptides in RPMI were plated in sterile 96-well microplates, and the target cells were dispensed to the microplates (10^5 cells/well in RPMI 1640). The plates were incubated for 24 h at 37 °C under 5% CO2. Cell-free media and cells incubated without peptides served as controls. Four hours before the incubation ended, MTT in PBS (5 mg/mL) was added to each well. After the incubation was stopped by adding isopropanol/ 0.04 M HCl, the optical density was measured at 540 nm, subtracting the background absorbance at 690 nm. Toxicity was determined by nonlinear regression analysis of the corresponding dose–response curves using the Sigma Plot 11 program to calculate the IC50 values (the concentration of the test substance that reduced the OD540 capacity by 50%).

CC(C)C[C@@H]1NC(=O)[C@H](C(C)C)NC(=O)CNC(=O)[C@H](CCCCN)NC(=O)[C@H](C(C)C)NC(=O)[C@H](CCCCN)NC(=O)[C@H](C(C)C)NC(=O)[C@H](Cc2ccc(O)cc2)NC(=O)[C@H](C)NC(=O)[C@H](Cc2ccc(O)cc2)NC(=O)[C@H](C(C)C)NC(=O)[C@@H](NC(=O)[C@H](Cc2c[nH]c3ccccc23)NC(=O)[C@@H](N)CCCCN)CSSC[C@@H](C(=O)N[C@@H](Cc2c[nH]c3ccccc23)C(=O)O)NC(=O)[C@H](CCCCN)NC(=O)[C@H](CCCCN)NC(=O)[C@H](Cc2ccc(O)cc2)NC(=O)[C@H](CCCCN)NC(=O)[C@H](C(C)C)NC1=O [AR-K] (HELM PEPTIDE1{K.W.C.V.Y.A.Y.V.K.V.K.G.V.L.V.K.Y.K.K.C.W}$PEPTIDE1,PEPTIDE1,3:R3-20:R3$$$V2.0; N-terminus assumed)
G-MIC (geometric mean of all determined MICs) [1]: 1.9 µM
Minimal Inhibitory Concentrations (MIC) [2]: 2 to 4 µM
Minimal Inhibitory Concentrations (MIC) [3]: 4 µM
Minimal Inhibitory Concentrations (MIC) [4]: 2 µM
Minimal Inhibitory Concentrations (MIC) [5]: 2 µM
Minimal Inhibitory Concentrations (MIC) [6]: 4 µM
Capacity to permeabilize the outer membrane with respect to arenicin-1 [7]: improved capacity to permeabilize the outer membrane
Minimal Inhibitory Concentrations (MIC) [8]: 2 µM
Minimal Inhibitory Concentrations (MIC) [9]: 1 µM
Minimal Inhibitory Concentrations (MIC) [10]: 2 µM
Minimal Inhibitory Concentrations (MIC) [11]: 1 µM
Minimal Inhibitory Concentrations (MIC) [12]: 1 to 2 µM
Minimal Inhibitory Concentrations (MIC) [13]: 2 µM
Minimal Inhibitory Concentrations (MIC) [14]: 1 µM
IC50 [15]: 7.7 µM

CC(C)C[C@@H]1NC(=O)[C@H](C(C)C)NC(=O)CNC(=O)[C@H](CCCNC(=N)N)NC(=O)[C@H](C(C)C)NC(=O)[C@H](CCCNC(=N)N)NC(=O)[C@H](C(C)C)NC(=O)[C@H](Cc2ccc(O)cc2)NC(=O)[C@H](C)NC(=O)[C@H](Cc2ccc(O)cc2)NC(=O)[C@H](C(C)C)NC(=O)[C@@H]2CSSC[C@H](NC(=O)[C@H](CCCNC(=N)N)NC(=O)[C@H](CCCNC(=N)N)NC(=O)[C@H](Cc3ccc(O)cc3)NC(=O)[C@H](CCCNC(=N)N)NC(=O)[C@H](C(C)C)NC1=O)C(=O)N[C@@H](Cc1c[nH]c3ccccc13)C(=O)N[C@@H](CCCNC(=N)N)C(=O)N[C@@H](Cc1c[nH]c3ccccc13)C(=O)N2 [ARcycl] (HELM PEPTIDE1{R.W.C.V.Y.A.Y.V.R.V.R.G.V.L.V.R.Y.R.R.C.W}$PEPTIDE1,PEPTIDE1,3:R3-20:R3|PEPTIDE1,PEPTIDE1,1:R1-21:R2$$$V2.0)
Minimal Inhibitory Concentrations (MIC) [2]: 2 µM
Minimal Inhibitory Concentrations (MIC) [3]: 4 µM
Minimal Inhibitory Concentrations (MIC) [4]: 4 µM
Minimal Inhibitory Concentrations (MIC) [5]: 2 µM
Minimal Inhibitory Concentrations (MIC) [6]: 4 µM
Capacity to permeabilize the outer membrane with respect to arenicin-1 [7]: improved capacity to permeabilize the outer membrane
Minimal Inhibitory Concentrations (MIC) [8]: 2 µM
Minimal Inhibitory Concentrations (MIC) [9]: 2 µM
Minimal Inhibitory Concentrations (MIC) [10]: 2 µM
Minimal Inhibitory Concentrations (MIC) [12]: 1 µM
Minimal Inhibitory Concentrations (MIC) [13]: 2 µM
Minimal Inhibitory Concentrations (MIC) [14]: 4 µM
IC50 [15]: 16.2 µM

From paper PMC6627698, “Redesigning Arenicin-1, an Antimicrobial Peptide from the Marine Polychaeta Arenicola marina, by Strand Rearrangement or Branching, Substitution of Specific Residues, and Backbone Linearization or Cyclization” (Marine Drugs, 2019)
